In US20080275085A1, “Piperidine derivative and use thereof” (priority 2007, published 2008) one finds IC50 data, which are given here for 18 compounds.

Where a name gives a salt, the structure may show the parent alone.

A word on the IC50: it is the concentration that inhibits the measured activity by half. The low end stands for higher potency, the high end for lower potency.

The assay concerns the target T1, substance P receptor (Homo sapiens, UniProt P25103).
T1 construct: The receptor was prepared from human lymphoblast cells (IM-9); endogenous in cells; host or cells: IM-9 human lymphoblast cells (membrane fraction, 100,000xG precipitate)
The assay is described as follows: Radioligand receptor binding inhibitory activity (125I-BHSP binding, receptor from IM-9 cells). As to conditions: receptor from human lymphoblast cells (IM-9); radioligand 125I-BHSP; 25° C., 30 min. Here is the method: Radioligand Receptor Binding Inhibitory Activity (Binding Inhibitory Activity Using Receptor from Human Lymphoblast Cells (IM-9))
The method of M. A. Cascieri et al., “Molecular Pharmacology, vol. 42, p. 458 (1992)” was modified and used. The receptor was prepared from human lymphoblast cells (IM-9).
IM-9 cells (2×10^5 cells/mL) were inoculated and incubated for 3 days, which was then subjected to centrifugation for 10 min. at 500×G to give cell pellets. The obtained pellets were washed with PBS (GIBCO), disrupted in buffer A (50 mM tris.hydrochloric acid buffer (pH 7.4) containing 120 mM sodium chloride, 5 mM potassium chloride, 2 μg/mL chymostatin, 40 μg/mL bacitracin, 40 μg/mL APMSF, 1 mM ethylenediamine tetra acetic acid) using a polytron.homogenizer [manufactured by Kinematika, Germany], and centrifuged at 100,000×G for 40 min. The precipitated fraction was suspended in buffer B (50 mM Tris-HCl (pH 7.4), 0.02% bovine serum albumin, 2 μg/mL chymostatin, 40 μg/mL bacitracin, 40 μg/mL APMSF, 3 mM MgCl2), which was then cryopreserved (−80° C.) as a receptor specimen.
Buffer B (50 μL) was added to a 96 well microassay plate (CORNING). Thereto was added 50 μL of membrane preparation suspended in buffer B at 250 μg/mL. A measurement buffer (50 μL) containing 2% dimethyl sulfoxide was added to examine total binding; 4 μM unlabeled SP (50 μL) diluted with a measurement buffer containing 2% dimethyl sulfoxide was added to examine non-specific binding; and 50 μL of a test compound (containing 2% dimethyl sulfoxide) diluted with a measurement buffer was added to examine binding inhibitory activity of the test compound. In addition, […] ^125I-BHSP solution (50 μL) was added to each well.
After reaction at 25° C. for 30 min, the cells were rapidly filtered through a GF/C filter plate (PerkinElmer) using a cell harvester (manufactured by PerkinElmer) to quench the reaction, and washed 10 times with 250 μL of 50 mM tris-HCl buffer (pH 7.4) containing 0.02% bovine serum albumin. The GF/C filter plate was dried, MicroScinti 0 (20 μL) was added, and the radioactivity was measured with TopCount (manufactured by PerkinElmer). The GF/C filter plate was immersed in 0.3% polyethylene imine for one day before use.
Specific binding is a value obtained by subtracting nonspecific binding from total binding. The binding inhibitory activity of a test compound is shown by a ratio of a value obtained by subtracting a measurement value with addition of a test compound from the total binding, relative to specific binding.
The antagonistic activity of the compounds obtained in the Examples was determined as a concentration necessary for causing 50% inhibition (IC50 value) under the above-described conditions, and the results shown in Table 34 were obtained.
The radio ligand means substance P labeled with [^125I].

T1 sequence (P25103 whole entry): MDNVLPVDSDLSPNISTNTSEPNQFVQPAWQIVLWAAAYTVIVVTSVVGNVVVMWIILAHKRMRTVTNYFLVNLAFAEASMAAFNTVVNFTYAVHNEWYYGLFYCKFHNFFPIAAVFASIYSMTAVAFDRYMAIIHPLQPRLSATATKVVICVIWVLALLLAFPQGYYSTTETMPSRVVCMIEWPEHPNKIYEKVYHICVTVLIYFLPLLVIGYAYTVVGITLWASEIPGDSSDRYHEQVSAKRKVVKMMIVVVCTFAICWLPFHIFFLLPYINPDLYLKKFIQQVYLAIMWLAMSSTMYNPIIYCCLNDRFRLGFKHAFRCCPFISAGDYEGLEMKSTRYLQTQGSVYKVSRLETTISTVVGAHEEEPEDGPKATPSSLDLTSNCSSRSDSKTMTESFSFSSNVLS

The compound `Cc1cc(F)ccc1[C@@H]1CN(C(C)CO)CC[C@H]1C(=O)N(C)Cc1cc(C(F)(F)F)cc(C(F)(F)F)c1` (relative stereo) [Example 120, (3R*,4R*)—N-[3,5-bis(trifluoromethyl)benzyl]-3-(4-fluoro-2-methylphenyl)-1-(2-hydroxy-1-methylethyl)-N-methylpiperidine-4-carboxamide monohydrochloride] displayed an IC50 of 0.043 nM.

In turn, `Cc1ccccc1[C@H]1CN(C(=O)C2CCN(C(=O)[C@@H](C)O)CC2)CC[C@@H]1C(=O)N(C)Cc1cc(C(F)(F)F)cc(C(F)(F)F)c1` [Example 29, (3S,4S)—N-[3,5-bis(trifluoromethyl)benzyl]-1-({1-[(2R)-2-hydroxypropanoyl]piperidin-4-yl}carbonyl)-N-methyl-3-(2-methylphenyl)piperidine-4-carboxamide] registered an IC50 of 0.023 nM.

For the compound `Cc1cc(F)ccc1[C@@H]1CN(CC(=O)N2CCC(O)CC2)CC[C@H]1C(=O)N(C)Cc1cc(C(F)(F)F)cc(C(F)(F)F)c1` (relative stereo) [Example 104, (3R*,4R*)—N-[3,5-bis(trifluoromethyl)benzyl]-3-(4-fluoro-2-methylphenyl)-1-[2-(4-hydroxypiperidin-1-yl)-2-oxoethyl]-N-methylpiperidine-4-carboxamide monohydrochloride], the half-inhibitory concentration (IC50) stood at 0.042 nM.

With `Cc1cc(F)ccc1[C@H]1CN(CCS(C)(=O)=O)CC[C@@H]1C(=O)N(C)[C@@H](C)c1cc(C(F)(F)F)cc(C(F)(F)F)c1` [Example 180, (3S,4S)—N-{(1S)-1-[3,5-bis(trifluoromethyl)phenyl]ethyl}-3-(4-fluoro-2-methylphenyl)-N-methyl-1-[2-(methylsulfonyl)ethyl]piperidine-4-carboxamide monohydrochloride], the IC50 was determined as 0.023 nM.

The compound `Cc1cc(F)ccc1[C@H]1CN(C(=O)C(N)=O)CC[C@@H]1C(=O)N(C)[C@@H](C)c1cc(C(F)(F)F)cc(C(F)(F)F)c1` [Example 178, (3S,4S)-1-[amino(oxo)acetyl]-N-{(1S)-1-[3,5-bis(trifluoromethyl)phenyl]ethyl}-3-(4-fluoro-2-methylphenyl)-N-methylpiperidine-4-carboxamide] had a half-inhibitory concentration (IC50) of 0.017 nM.

In turn, `Cc1ccccc1[C@H]1CN(C(=O)CN2C(=O)OC(C)(C)C2=O)CC[C@@H]1C(=O)N(C)[C@@H](C)c1cc(C(F)(F)F)cc(C(F)(F)F)c1` [Example 30, (3S,4S)—N-{(1S)-1-[3,5-bis(trifluoromethyl)phenyl]ethyl}-1-[(5,5-dimethyl-2,4-dioxo-1,3-oxazolidin-3-yl)acetyl]-N-methyl-3-(2-methylphenyl)piperidine-4-carboxamide] showed an IC50 of 0.057 nM.

`Cc1cc(F)ccc1[C@@H]1CN(CC(=O)NC2CC2)CC[C@H]1C(=O)N(C)Cc1cc(C(F)(F)F)cc(C(F)(F)F)c1` (relative stereo) [Example 103, (3R*,4R*)—N-[3,5-bis(trifluoromethyl)benzyl]-1-[2-(cyclopropylamino)-2-oxoethyl]-3-(4-fluoro-2-methylphenyl)-N-methylpiperidine-4-carboxamide monohydrochloride] registered an IC50 of 0.096 nM.

In turn, `Cc1cc(F)ccc1[C@@H]1CN(S(=O)(=O)CCN2CCOCC2)CC[C@H]1C(=O)N(C)Cc1cc(C(F)(F)F)cc(C(F)(F)F)c1` (relative stereo) [Example 139, (3R*,4R*)—N-[3,5-bis(trifluoromethyl)benzyl]-3-(4-fluoro-2-methylphenyl)-N-methyl-1-[(2-morpholin-4-ylethyl)sulfonyl]piperidine-4-carboxamide monohydrochloride] yielded an IC50 of 0.037 nM.

With `Cc1cc(F)ccc1[C@H]1CN(C(=O)C2CCN(C(=O)[C@@H](C)O)CC2)CC[C@@H]1C(=O)N(C)Cc1cc(C(F)(F)F)cc(C(F)(F)F)c1` [Example 151, (3S,4S)—N-[3,5-bis(trifluoromethyl)benzyl]-3-(4-fluoro-2-methylphenyl)-1-({1-[(2R)-2-hydroxypropanoyl]piperidin-4-yl}carbonyl)-N-methylpiperidine-4-carboxamide], the IC50 came out at 0.02 nM.

`Cc1cc(F)ccc1[C@@H]1CN(C2CCN(C(N)=O)CC2)CC[C@H]1C(=O)N(C)Cc1cc(C(F)(F)F)cc(C(F)(F)F)c1` (relative stereo) [Example 109, (3R*,4R*)—N^4-[3,5-bis(trifluoromethyl)benzyl]-3-(4-fluoro-2-methylphenyl)-N^4-methyl-1,4′-bipiperidine-1′,4-dicarboxamide monohydrochloride] yielded an IC50 of 0.023 nM.

With `Cc1cc(F)ccc1[C@H]1CN(C(=O)C2CCN(C(=O)[C@H](C)O)CC2)CC[C@@H]1C(=O)N(C)Cc1cc(C(F)(F)F)cc(C(F)(F)F)c1` [Example 150, (3S,4S)—N-[3,5-bis(trifluoromethyl)benzyl]-3-(4-fluoro-2-methylphenyl)-1-({1-[(2S)-2-hydroxypropanoyl]piperidin-4-yl}carbonyl)-N-methylpiperidine-4-carboxamide], the IC50 is 0.033 nM.

As for `Cc1cc(F)ccc1[C@H]1CN(C(=O)c2cncnc2)CC[C@@H]1C(=O)N(C)[C@@H](C)c1cc(C(F)(F)F)cc(C(F)(F)F)c1` [Example 158, (3S,4S)—N-{(1S)-1-[3,5-bis(trifluoromethyl)phenyl]ethyl}-3-(4-fluoro-2-methylphenyl)-N-methyl-1-(pyrimidin-5-ylcarbonyl)piperidine-4-carboxamide], the IC50 stood at 0.033 nM.

Consider `Cc1cc(F)ccc1[C@H]1CN(C(=O)CN2C(=O)OC(C)(C)C2=O)CC[C@@H]1C(=O)N(C)Cc1cc(C(F)(F)F)cc(C(F)(F)F)c1` [Example 148, (3S,4S)—N-[3,5-bis(trifluoromethyl)benzyl]-1-[(5,5-dimethyl-2,4-dioxo-1,3-oxazolidin-3-yl)acetyl]-3-(4-fluoro-2-methylphenyl)-N-methylpiperidine-4-carboxamide], for which the IC50 amounted to 0.06 nM.

On to `Cc1cc(F)ccc1[C@H]1CN(C(=O)C2CCN(C(=O)CO)CC2)CC[C@@H]1C(=O)N(C)[C@@H](C)c1cc(C(F)(F)F)cc(C(F)(F)F)c1` [Example 152, (3S,4S)—N-{(1S)-1-[3,5-bis(trifluoromethyl)phenyl]ethyl}-3-(4-fluoro-2-methylphenyl)-1-[(1-glycoloylpiperidin-4-yl)carbonyl]-N-methylpiperidine-4-carboxamide], for which the IC50 is 0.015 nM.

The compound `Cc1cc(F)ccc1[C@H]1CN(C(=O)CCS(C)(=O)=O)CC[C@@H]1C(=O)N(C)[C@@H](C)c1cc(C(F)(F)F)cc(C(F)(F)F)c1` [Example 160, (3S,4S)—N-{(1S)-1-[3,5-bis(trifluoromethyl)phenyl]ethyl}-3-(4-fluoro-2-methylphenyl)-N-methyl-1-[3-(methylsulfonyl)propanoyl]piperidine-4-carboxamide] registered an IC50 of 0.032 nM.

Take `CC(=O)Nc1ccc(N2CC[C@@H](C(=O)N(C)Cc3cc(C(F)(F)F)cc(C(F)(F)F)c3)[C@H](c3ccc(F)cc3C)C2)nc1` (relative stereo) [Example 129, (3R*,4R*)-1-[5-(acetylamino)pyridin-2-yl]-N-[3,5-bis(trifluoromethyl)benzyl]-3-(4-fluoro-2-methylphenyl)-N-methylpiperidine-4-carboxamide monohydrochloride]: the half-inhibitory concentration (IC50) is 0.095 nM.

`Cc1cc(F)ccc1[C@@H]1CN(C(C)(C)C(N)=O)CC[C@H]1C(=O)N(C)Cc1cc(C(F)(F)F)cc(C(F)(F)F)c1` (relative stereo) [Example 113, (3R*,4R*)-1-(2-amino-1,1-dimethyl-2-oxoethyl)-N-[3,5-bis(trifluoromethyl)benzyl]-3-(4-fluoro-2-methylphenyl)-N-methylpiperidine-4-carboxamide monohydrochloride] registered an IC50 of 0.061 nM.

`Cc1ccsc1C1CN(C(=O)C2CCN(C(=O)CO)CC2)CCC1C(=O)N(C)[C@@H](C)c1cc(C(F)(F)F)cc(C(F)(F)F)c1` (single isomer, unassigned; more polar) [Example 176, (3R*,4S*)—N-{(1S)-1-[3,5-bis(trifluoromethyl)phenyl]ethyl}-1-[(1-glycoloylpiperidin-4-yl)carbonyl]-N-methyl-3-(3-methyl-2-thienyl)piperidine-4-carboxamide (more polar)] gave an IC50 of 0.051 nM.
